How the values were obtained:
USP10 = target: T1, USP10 (Homo sapiens, UniProt Q14694); test: SPR (Biacore T200, His-USP10 immobilized on CM5 chip); supported by Ub-AMC inhibition of purified USP10 (IC50 […]); format: binding
T1 construct: His-USP10

recombinant GST-USP10 = recombinant GST-USP10 (human, UniProt Q14694-3 1-802); test: pull-down; in vitro GST pull down: GST-tagged protein bound to GST Bind Resin in GST lysis buffer, His-tagged proteins added, 4 °C for 4 h, six washes with PBST, western blot; conditions: both partners purified
recombinant GST-USP10, sequence (Q14694 other isoform, or with tags, fused parts or gaps): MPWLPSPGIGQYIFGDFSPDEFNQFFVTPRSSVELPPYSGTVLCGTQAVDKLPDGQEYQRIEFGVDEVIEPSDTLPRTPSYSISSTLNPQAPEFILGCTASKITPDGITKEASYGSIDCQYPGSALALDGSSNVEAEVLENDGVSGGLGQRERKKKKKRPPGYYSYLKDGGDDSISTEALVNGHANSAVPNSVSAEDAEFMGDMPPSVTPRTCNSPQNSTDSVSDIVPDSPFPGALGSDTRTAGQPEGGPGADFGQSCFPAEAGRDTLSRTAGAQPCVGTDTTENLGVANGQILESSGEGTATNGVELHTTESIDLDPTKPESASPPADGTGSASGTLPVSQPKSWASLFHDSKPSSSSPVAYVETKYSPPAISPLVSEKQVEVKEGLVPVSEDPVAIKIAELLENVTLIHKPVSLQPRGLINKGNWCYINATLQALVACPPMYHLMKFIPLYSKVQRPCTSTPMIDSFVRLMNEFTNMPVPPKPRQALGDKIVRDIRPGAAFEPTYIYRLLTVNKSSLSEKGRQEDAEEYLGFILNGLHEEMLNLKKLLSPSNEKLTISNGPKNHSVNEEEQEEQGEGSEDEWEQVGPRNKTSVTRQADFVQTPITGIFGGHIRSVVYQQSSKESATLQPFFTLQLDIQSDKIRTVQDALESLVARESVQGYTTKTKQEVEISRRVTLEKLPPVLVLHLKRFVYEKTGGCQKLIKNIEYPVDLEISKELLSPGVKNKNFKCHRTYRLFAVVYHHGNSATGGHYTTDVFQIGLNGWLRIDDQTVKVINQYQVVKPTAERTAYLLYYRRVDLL

T1 sequence (Q14694 2-798): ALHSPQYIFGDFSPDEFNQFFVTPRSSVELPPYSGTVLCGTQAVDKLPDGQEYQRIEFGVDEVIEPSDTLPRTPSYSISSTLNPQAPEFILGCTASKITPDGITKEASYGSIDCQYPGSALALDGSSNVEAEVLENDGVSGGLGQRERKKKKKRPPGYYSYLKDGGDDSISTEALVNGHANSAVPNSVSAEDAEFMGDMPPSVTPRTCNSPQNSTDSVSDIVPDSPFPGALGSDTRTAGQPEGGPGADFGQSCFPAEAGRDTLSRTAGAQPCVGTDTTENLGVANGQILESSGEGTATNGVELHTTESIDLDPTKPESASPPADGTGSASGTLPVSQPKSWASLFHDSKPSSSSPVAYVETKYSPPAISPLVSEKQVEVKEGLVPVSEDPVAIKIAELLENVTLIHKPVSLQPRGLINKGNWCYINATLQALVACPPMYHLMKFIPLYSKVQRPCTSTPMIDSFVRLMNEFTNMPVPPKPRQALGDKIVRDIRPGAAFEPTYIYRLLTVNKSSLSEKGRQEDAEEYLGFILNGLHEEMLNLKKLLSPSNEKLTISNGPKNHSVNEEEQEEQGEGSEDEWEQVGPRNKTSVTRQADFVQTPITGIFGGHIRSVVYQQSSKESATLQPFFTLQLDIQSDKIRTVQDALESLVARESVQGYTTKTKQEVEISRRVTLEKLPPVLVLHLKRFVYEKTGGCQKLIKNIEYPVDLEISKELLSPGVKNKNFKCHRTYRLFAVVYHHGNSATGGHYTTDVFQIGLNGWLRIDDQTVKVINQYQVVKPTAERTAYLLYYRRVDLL

Kd (USP10) [µM] | binding result (recombinant GST-USP10) | Molecule
~27.5 | – | CC1=C[C@H](C)C[C@H](C)[C@H](Cc2cnco2)OC(=O)/C(C)=C\[C@H](C)C[C@H](C)[C@H](Cc2cnco2)OC1=O [F806, FW-04-806]
– | binds | His-ANLN amino acids 1-454 (domain or fragment, human, UniProt Q9NQW6 1-454, looked up, also called His-ANLN mutant) MDPFTEKLLERTRARRENLQRKMAERPTAAPRSMTHAKRARQPLSEASNQQPLSGGEEKSCTKPSPSKKRCSDNTEVEVSNLENKQPVESTSAKSCSPSPVSPQVQPQAADTISDSVAVPASLLGMRRGLNSRLEATAASSVKTRMQKLAEQRRRWDNDDMTDDIPESSLFSPMPSEEKAASPPRPLLSNASATPVGRRGRLANLAATICSWEDDVNHSFAKQNSVQEQPGTACLSKFSSASGASARINSSSVKQEATFCSQRDGDASLNKALSSSADDASLVNASISSSVKATSPVKSTTSITDAKSCEGQNPELLPKTPISPLKTGVSKPIVKSTLSQTVPSKGELSREICLQSQSKDKSTTPGGTGIKPFLERFGERCQEHSKESPARSTPHRTPIITPNTKAIQERLFKQDTSSSTTHLAQQLKQERQKELACLRGRFDKGNIWSAEKGG
